From US10196403B2, “Compounds and compositions and uses thereof” (Sunovion Pharmaceuticals Inc., priority 2016, dated 2019)
Where two headings read alike, the source gives them in different places.

System: mice
Experiment: Neuropharmacological Assay (SmartCube)
Format: in vivo
Settings: for minimal effective dose: Mus musculus, read-out: POTENCY (minimal effective dose, MED); for AD: ADHD (SmartCube probability) / AG: analgesic (SmartCube probability) / AX: anxiolytic (SmartCube probability) / CE: cognitive enhancer (SmartCube probability) / DP: anti-depressant (SmartCube probability) / MS: mood stabilizer (SmartCube probability) / PS: anti-psychotic (SmartCube probability) / SD: sedative hypnotic (SmartCube probability) / UN: uncharacterized CNS activity (SmartCube probability): mice, i.p. 15 min before test, most efficacious dose(s) of 3 doses
Source text: Neuropharmacological Assay (SmartCube™)
Neurosci. 2011 Sep. 9; 5:103 (doi: 10.3389/fnins.2011.00103) (“Roberds”). As reported in Roberds, because psychiatric diseases generally result from disorders of cell-cell communication, circuitry, intact systems are useful in detecting improvement in disease-relevant endpoints. These endpoints are typically behavioral in nature, often requiring human observation and interpretation. To facilitate testing of multiple compounds for behavioral effects relevant to psychiatric disease, PsychoGenics, Inc. (Tarrytown, N.Y., “PGI”) developed SmartCube™, an automated system in which behaviors of compound-treated mice are captured by digital video and analyzed with computer algorithms. (D. Brunner et al., Drug Discov. Today 2002, 7:S107-S112). PGI Analytical Systems uses data from SmartCube™ to compare the behavioral signature of a test compound to a database of behavioral signatures obtained using a large set of diverse reference compounds. (The composition of the database as well as validation of the method is further described in Roberds). In this way, the neuropharmacological effects of a test compound can be predicted by similarity to major classes of compounds, such as antipsychotics, anxiolytics and antidepressants.
The SmartCube™ system produces an activity signature indicating the probability that the activity of the test compound at the administered dose matches a given class of neuropharmacological agents. (See, e.g., Roberds, FIGS. 2 and 3). The test compound is simultaneously compared against multiple classes of agents; thus, a separate probability is generated for each behavioral effect measured (e.g., anxiolytic activity, analgesic activity, etc.). In the table below, these probabilities are reported for each behavioral effect measured as follows:
where LOQ is the limit of quantification.
Provided compounds were dissolved in a mixture of Pharmasolve™ (N-methyl-2-pyrrolidone), polyethylene glycol and propylene glycol, and were injected i.p. 15 min. before the behavioral test. For each compound, injections were administered at 3 different doses. For each behavioral effect measured, results for the most efficacious dose(s) are presented. In the table below, DP: anti-depressant; AX: anxiolytic; SD: sedative hypnotic; PS: anti-psychotic; MS: mood stabilizer; AD: ADHD; CE: cognitive enhancer; AG: analgesic; UN: uncharacterized CNS activity.
The potency of many of the compounds in the table was also determined in the SmartCube™ system. Test compounds were routinely examined at dose levels of 0.3, 1, 3 10 and 30 mg per kg (mpk), although the dose range was increased or decreased if necessary to obtain a full dose response curve. A compound's minimal effective dose (MED) is a measure of the compounds potency. The MED was defined as the dose (in mpk) having 50% or more total activity in SmartCube.

[1] = MED = dose having 50% or more total activity in SmartCube

| Compound | minimal effective dose [1] [mg/kg] | AD: ADHD (SmartCube probability) | AG: analgesic (SmartCube probability) | AX: anxiolytic (SmartCube probability) | CE: cognitive enhancer (SmartCube probability) | DP: anti-depressant (SmartCube probability) | MS: mood stabilizer (SmartCube probability) | PS: anti-psychotic (SmartCube probability) | SD: sedative hypnotic (SmartCube probability) | UN: uncharacterized CNS activity (SmartCube probability) | minimal effective dose [mg/kg] |
| --- | --- | --- | --- | --- | --- | --- | --- | --- | --- | --- | --- |
| CNC[C@@H]1OCCc2c(O)cc3c(c21)OCO3 (single isomer, unassigned) [Example 103] | > 30 | + (LOQ≤ + <5%) | + (LOQ≤ + <5%) | + (LOQ≤ + <5%) | + (LOQ≤ + <5%) | + (LOQ≤ + <5%) | + (LOQ≤ + <5%) | + (LOQ≤ + <5%) | + (LOQ≤ + <5%) | + (LOQ≤ + <5%) |  |
| CNC[C@H]1OCCc2c(O)cc3c(c21)OCO3 (single isomer, unassigned) [Example 104] | < 3 | + (LOQ≤ + <5%) | + (LOQ≤ + <5%) | +++ (25%≤ +++ <50%) | ++ (5%≤ ++ <25%) | ++++ (50%≤ ++++) | + (LOQ≤ + <5%) | + (LOQ≤ + <5%) | ++ (5%≤ ++ <25%) | ++ (5%≤ ++ <25%) |  |
| CNC[C@@H]1OC[C@@H](O)c2ccc3c(c21)OCO3 (single isomer, unassigned) [Example 111] | 10 to 30 | + (LOQ≤ + <5%) | + (LOQ≤ + <5%) | ++ (5%≤ ++ <25%) | + (LOQ≤ + <5%) | ++++ (50%≤ ++++) | + (LOQ≤ + <5%) | ++ (5%≤ ++ <25%) | + (LOQ≤ + <5%) | + (LOQ≤ + <5%) |  |
| CNC[C@H]1OC[C@H](O)c2ccc3c(c21)OCO3 (single isomer, unassigned) [Example 112] | > 30 | + (LOQ≤ + <5%) | + (LOQ≤ + <5%) | ++ (5%≤ ++ <25%) | + (LOQ≤ + <5%) | ++ (5%≤ ++ <25%) | + (LOQ≤ + <5%) | + (LOQ≤ + <5%) | + (LOQ≤ + <5%) | + (LOQ≤ + <5%) |  |
| CNC[C@H]1OC[C@@H](O)c2ccc3c(c21)OCO3 (single isomer, unassigned) [Example 113] | > 30 | + (LOQ≤ + <5%) | + (LOQ≤ + <5%) | ++ (5%≤ ++ <25%) | + (LOQ≤ + <5%) | + (LOQ≤ + <5%) | + (LOQ≤ + <5%) | + (LOQ≤ + <5%) | + (LOQ≤ + <5%) | + (LOQ≤ + <5%) |  |
| CNC[C@@H]1OC[C@H](O)c2ccc3c(c21)OCO3 (single isomer, unassigned) [Example 114] | 10 to 30 | + (LOQ≤ + <5%) | + (LOQ≤ + <5%) | ++ (5%≤ ++ <25%) | + (LOQ≤ + <5%) | + (LOQ≤ + <5%) | + (LOQ≤ + <5%) | ++ (5%≤ ++ <25%) | + (LOQ≤ + <5%) | +++ (25%≤ +++ <50%) |  |
| CNC[C@H]1OCCc2cc3c(cc21)OCO3 (stereo in doubt) [Example 5, (S)-1-(7,8-dihydro-5H-[1,3]dioxolo[4,5-g]isochromen-5-yl)-N-methylmethanamine] | > 30 | + (LOQ≤ + <5%) | ++ (5%≤ ++ <25%) | ++ (5%≤ ++ <25%) | + (LOQ≤ + <5%) | + (LOQ≤ + <5%) | + (LOQ≤ + <5%) | + (LOQ≤ + <5%) | + (LOQ≤ + <5%) | + (LOQ≤ + <5%) |  |
| CNC[C@@H]1OCCc2cc3c(cc21)OCO3 (stereo in doubt) [Example 6, (R)-1-(7,8-dihydro-5H-[1,3]dioxolo[4,5-g]isochromen-5-yl)-N-methylmethanamine] | 10 to 30 | + (LOQ≤ + <5%) | + (LOQ≤ + <5%) | ++ (5%≤ ++ <25%) | + (LOQ≤ + <5%) | + (LOQ≤ + <5%) | ++ (5%≤ ++ <25%) | ++ (5%≤ ++ <25%) | + (LOQ≤ + <5%) | ++++ (50%≤ ++++) |  |
| CNC[C@H]1OCCc2ccc3c(c21)OCO3 [Example 1, (S)-1-(6,9-dihydro-7H-[1,3]dioxolo[4,5-h]isochromen-9-yl)-N-methylmethanamine] |  | + (LOQ≤ + <5%) | + (LOQ≤ + <5%) | ++ (5%≤ ++ <25%) | + (LOQ≤ + <5%) | ++++ (50%≤ ++++) | + (LOQ≤ + <5%) | ++ (5%≤ ++ <25%) | ++ (5%≤ ++ <25%) | + (LOQ≤ + <5%) | < 3 |
| CNC[C@H]1OCCc2c1ccc1c2OCO1 [Example 3, (S)-1-(8,9-dihydro-6H-[1,3]dioxolo[4,5-f]isochromen-6-yl)-N-methylmethanamine] | 10 to 30 | ++ (5%≤ ++ <25%) | ++ (5%≤ ++ <25%) | ++ (5%≤ ++ <25%) | + (LOQ≤ + <5%) | +++ (25%≤ +++ <50%) | + (LOQ≤ + <5%) | + (LOQ≤ + <5%) | + (LOQ≤ + <5%) | + (LOQ≤ + <5%) |  |
| CNC[C@@H]1OCCc2c1ccc1c2OCO1 [Example 4, (R)-1-(8,9-dihydro-6H-[1,3]dioxolo[4,5-f]isochromen-6-yl)-N-methylmethanamine] | 3 to 10 | + (LOQ≤ + <5%) | ++ (5%≤ ++ <25%) | + (LOQ≤ + <5%) | + (LOQ≤ + <5%) | ++++ (50%≤ ++++) | + (LOQ≤ + <5%) | + (LOQ≤ + <5%) | + (LOQ≤ + <5%) | + (LOQ≤ + <5%) |  |
